Experimental data reported in US20200352947A1, “USE OF SEROTONERGIC DRUGS TO TREAT VIRUS-INDUCED THROMBOCYTOPENIA” (NATIONAL UNIVERSITY OF SINGAPORE, priority 2017, published 2020).

Key:
[1] = tested on: DENV2-infected mice; experiment: Platelet counts (thrombocytopenia) in DENV2-infected WT mice; format: in vivo; details: mice, 10^6 pfu DENV2 IP; WAY-100135 3 mg/kg, ketanserin 8 mg/kg or sarpogrelate 3 mg/kg; 24 hours post-infection; n=5
Experimental: Platelet counts of DENV2 infected mice. Mice were infected via intraperitoneal route (IP) with 10^6 plaque forming units (pfu) and were given either vehicle (1% DMSO) or ketanserin 8 mg/kg IP. Blood was taken via cheek bleed 24 hours post-infection and platelet counts were measured using an automated hematology analyzer. DENV2 infection induces thrombocytopenia, but ketanserin treatment is able to prevent thrombocytopenia (n=5). Mean values are presented and error bars represent the SEM. P values were determined by Student's unpaired t test; ***P<0.001, ****P<0.0001.
Platelet counts of DENV2 infected mice. Mice were infected IP with 10^6 pfu of DENV2 and were given either vehicle, the 5HT1A antagonist WAY-100135, or either of the 5HT2A antagonists, ketanserin and sarpogrelate. Blood was taken via cheek bleed 24 hours post-infection and platelet counts were measured using an automated hematology analyzer. DENV2 infection induced thrombocytopenia that was able to be prevented through administration of serotonin receptor antagonists (n=5). Mean values are presented and error bars represent the SEM. P values were determined by one-way ANOVA; ***p<0.001, ****P<0.0001.
WT mice were infected via intraperitoneal route (IP) with 10^6 plaque forming units (pfu) of DENV2 and were given either vehicle (1% DMSO) or ketanserin (8 mg/kg) IP. Blood was taken via cheek bleed 24 hours post-infection and platelet counts were measured using an automated hematology analyzer.
One limitation of the experimental protocol in Examples 10 and 11 is that the vehicle used to deliver ketanserin in mice, DMSO, can itself interfere with platelet aggregation [Rosenblum, W. I. & El-Sabban. F. Stroke 13, 35-39 (1982)]. This difference can be observed by comparing the severity of thrombocytopenia in dengue-infected mice between FIGS. 1 and 10. Accordingly, newer serotonin receptor antagonists that are more soluble in saline were tested, to determine whether a similar effect is seen even without the confounding effects of DMSO. Mice were infected IP with 10^6 pfu of DENV2 and were given either vehicle, the 5HT1A antagonist WAY-100135 (3 mg/kg), or one of the 5HT2A antagonists ketanserin (8 mg/kg) or sarpogrelate (3 mg/kg). Blood was taken via cheek bleed 24 hours post-infection and platelet counts were measured using an automated hematology analyzer.

[2] = tested on: DENV2-infected mice; experiment: Platelet counts and platelet activation in DENV2-infected mice pretreated with fluoxetine; format: in vivo; details: fluoxetine 20 mg/kg/day in drinking water for 2 weeks, then 10^6 pfu DENV2 IP; 24 and 72 hours; n=5
Experimental: Mice were administered fluoxetine (20 mg/kg/day) or vehicle via drinking water for 2 weeks. Mice were then infected with 10^6 pfu of DENV2 intraperitoneally. At 24 and 72 hours, blood was collected and platelet counts were measured. The reduction in platelet counts and increased platelet activation induced by DENV was prevented by fluoxetine treatment (n=5). Mean values are presented and error bars represent the SEM. P values were determined by one-way ANOVA; *P<0.05, **P<0.01, ***P<0.001, ****P<0.0001.
Fluoxetine, an SSRI, prevents the uptake of serotonin into platelets. Activation of platelets by DENV (FIG. 3), will result in the release of stored serotonin, which can act in a positive feedback loop. Mice were treated with fluoxetine (20 mg/kg/day) or vehicle in drinking water for 2 weeks and infected with 10^6 pfu of DENV IP. At 24 and 72 hours, blood was collected and platelet counts were measured. The reduction in platelet counts and increased platelet activation induced by DENV was inhibited by fluoxetine treatment (FIG. 15).

[3] = tested on: DENV2-infected Sash mice; experiment: Exogenous serotonin in DENV2-infected mast cell-deficient (Sash) mice; format: in vivo; details: serotonin 150 mg/kg daily
Experimental: (A) Sash mice were infected with DENV2 and treated with 150 mg/kg of serotonin or vehicle daily. Blood was taken for analysis 3 days post-infection. […] (C) Representative eosin and methylene blue staining of peripheral blood smears day 3 post-infection. Some individual platelets are indicated by arrows. Platelet aggregates are surrounded by a dashed line. Scale bar=25 μm. Means are presented with error bars representing the SEM. P values were determined by Student's unpaired t test; ns: non-significant, **P<0.01, ***P<0.001.

[4] = tested on: DENV2-infected WT mice; experiment: Exogenous serotonin in DENV2-infected and uninfected WT mice; format: in vivo; details: serotonin 150 mg/kg daily
Experimental: (A) WT mice were infected with DENV2 (1×10^6 pfu i.p.) and treated with 150 mg/kg of serotonin or vehicle daily. […] (B) Blood of DENV infected mice treated with serotonin or vehicle was isolated and stained for platelet marker CD41 and activation marker CD62P and analyzed by flow cytometry. […] (C) Representative peripheral blood smears, day 3 post-infection, show platelet aggregation (dashed lines), which was more visually apparent following exogenous serotonin treatment compared to DENV infection. Some individual platelets are indicated by arrows. Scale bar=25 μm. Mean values are presented and error bars represent the SEM. P values were determined by Student's unpaired t test; *P<0.05, ns: non-significant.
WT mice were infected with DENV and administered exogenous serotonin to determine if there was an increase in platelet activation mediated by serotonin and if this would worsen thrombocytopenia in vivo.

[5] = tested on: human platelets; experiment: Platelet activation (CD41/CD62P flow cytometry) in stimulated human whole blood; format: cell-based; details: 15 min stimulation; CD41/CD62P flow cytometry; n=4
Experimental: (A) Whole blood from healthy human volunteers was isolated and stimulated with DENV2, serotonin, or DENV2+serotonin for 15 min. Cells were then fixed and stained for platelet markers CD41 and CD62P and analyzed by flow cytometry. DENV raised the activation levels of platelets. […] (B) Human whole blood was stimulated with DENV2, mast cells (MCs) or DENV2+MCs in the presence of vehicle or ketanserin (100 nM or 500 nM) for 15 min prior to assessment of platelet activation. […] Mean values are presented and error bars represent the SEM. P values were determined by one-way ANOVA; *P<0.05, ** P<0.01, ***P<0.001, ****P<0.0001, ns: non-significant.
Additionally, products from DENV-stimulated human mast cells promoted platelet activation, dependent on platelet 5HT2A receptor, since this effect was abolished by ketanserin (FIG. 9B). […] Furthermore, ketanserin is effective in reversing DENV-induced human platelet activation.

SMILES: COc1ccccc1N1CCN(C[C@@H](C(=O)NC(C)(C)C)c2ccccc2)CC1 [WAY-100135, (S)-N-tert-butyl-3-(4-(2-methoxyphenyl)-piperazin-1-yl)-2-phenylpropanamide]
- platelet counts (DENV2-induced thrombocytopenia) [1]: prevented

SMILES: CNCCC(Oc1ccc(C(F)(F)F)cc1)c1ccccc1 (stereo not shown) [fluoxetine]
- increased platelet activation induced by DENV [2]: inhibited
- reduction in platelet counts induced by DENV [2]: inhibited

SMILES: COc1cccc(CCc2ccccc2OCC(CN(C)C)OC(=O)CCC(=O)O)c1 (stereo not shown) [sarpogrelate, 4-[1-(dimethylamino)-3-[2-[2-(3-methoxyphenyl)ethyl]phenoxy]propan-2-yl]oxy-4-oxobutanoic acid]
- platelet counts (DENV2-induced thrombocytopenia) [1]: prevented

SMILES: NCCc1c[nH]c2ccc(O)cc12 [serotonin]
- circulating platelet counts ([3]; 3 days post-infection): significantly reduced circulating platelet counts compared to vehicle (mock)-treated animals
- platelet activation ([3]; 3 days post-infection, n=5-8): increased platelet activation in infected mice compared to vehicle treated controls
- platelet aggregates in peripheral blood films ([3]; day 3 post-infection): increased platelet aggregates
- platelet aggregates in peripheral blood films ([4]; DENV2-infected WT mice, day 3 post-infection): platelet aggregates increased
- platelet activation (CD41/CD62P) in infected mice ([4]; DENV2-infected WT mice, n=6-12): further increased
- platelet counts (thrombocytopenia) in infected mice ([4]; WT mice, DENV2 1×10^6 pfu i.p., 3 days post-infection): worsened thrombocytopenia during DENV infection compared to vehicle-treated mice
- platelet activation (CD41/CD62P) in uninfected mice ([4]; uninfected WT mice): did not result in platelet activation in uninfected mice
- platelet counts in uninfected mice ([4]; uninfected WT mice): did not affect platelet counts in uninfected WT mice
- platelet activation in human whole blood stimulated with DENV2+serotonin [5]: significantly enhanced platelet activation over control and DENV groups
